Source: US4762828A, “1,2,4-triazolo[4,3-d]-4-azatricyclo-[4.3.1.1^3,8 ]undecane and 3-substituted derivatives, and intermediates thereof” (Pennwalt Corporation, priority 1987, dated 1988)

Experiments:
[1] = system: carrageenan-induced rat paw edema; experiment: carrageenan-induced rat paw edema assay (anti-inflammatory activity); format: in vivo, male Sprague Dawley rats; conditions: for % Inhibition: oral, control 63.9% edema; for anti-inflammatory activity (in words): administered orally
Experimental: Anti-inflamatory activity was determined by carragenaninduced paw edema of laboratory rats. Groups of six male Sprague Dawley rats orally received compound suspended in a 1% aqueous solution of Methocel brand methylcellulose. Control rats received a 0.5% aqueous solution of Methocel only. Two hours later, each rat received a subcutaneous injection of 0.1 ml of a 1% homogenized suspension of carrageenan in the plantar surface of the right hind paw.
Immediately, the volume of the paw was measured by immersing it in mercury to above the lateral mateolus. The mercury in a glass cylinder 25 mm in diameter and 60 mm deep was connected at the bottom on the cylinder by a column of water to a Statham transducer (model P23BB), range 0-5 cm of mercury pressure. The volume was recorded electronically on a Beckman recorder, R511. Three hours later, the inflamed paw volume was measured again, and the change in volume was recorded for each group. Indomethacin,a known anti-inflamatory agent, was included as a standard.

minimal neurotoxic dose = experiment: minimal neurotoxic dose; design: species or system mice; conditions: mouse, in vivo, ip
mice [2] = experiment: antihypoxia test: survival duration of mice in a normobaric atmosphere of 96% nitrogen and 4% oxygen at 35° C; format: in vivo; conditions: for Survival Minutes, Compound: N=5, 35° C.
Experimental: N^1 = Number of mice in each group
NS = Not significant, P >0.05
ip = intraperitoneal administration
iv = intravenous administration
The antihypoxia test measures the survival duration of mice in a normobaric atmosphere consisting of 96% nitrogen and 4% oxygen, at 35° C. The mice are considered dead when they stop visible respiration. The test indicates potential clinical utility in situations of central nervous system hypoxia, such as occurs following stroke, cardiac arrest, and traumatic accidents.

mice [3] = experiment: estimated LD50; conditions: ip

| Compound | % Inhibition ([1]; 25.0 mg/kg) [%] | % Inhibition ([1]; 50.0 mg/kg, Hydroiodide) [%] | % Inhibition ([1]; 100.0 mg/kg) [%] | anti-inflammatory activity (in words) [1] | minimal neurotoxic dose (minimal neurotoxic dose) [mg/kg] | % Inhibition ([1]; 50.0 mg/kg) [%] | Survival Minutes, Compound (mice [2]; 1 mg/kg iv, control 2.36, P NS) [min] | Survival Minutes, Compound (mice [2]; 1.5 mg/kg iv, control 2.30, P NS) [min] | prolonged the survival time of mice in the antihypoxia test (mice [2]; 6 mg/kg (i.p.)) | Survival Minutes, Compound (mice [2]; 6 mg/kg ip, control 2.08, P =0.04) [min] | Estimated LD50 (mice [3]) [mg/kg] | % Inhibition ([1]; 4.0 mg/kg) [%] |
| --- | --- | --- | --- | --- | --- | --- | --- | --- | --- | --- | --- | --- |
| c1nnc2n1C1CC3CC(CC2C3)C1 [Example 1, 1,2,4-Triazolo[4,3-d]-4-azatricyclo[4.3.1.1^3,8]undecane Hydroiodide] | 17.0 | 43.4 | 56.6 | demonstrated activity |  |  |  |  |  |  |  |  |
| c1nnc2n1C1CC3CC(CC2C3)C1 [Example 2, 1,2,4-Triazolo[4,3-d]-4-azatricyclo[4.3.1.1^3,8]undecane] | 17.0 |  |  | demonstrated activity | 6 | 28.3 | 2.34 | 3.02 | more than 2 fold | 5.78 | 12 |  |
| COc1ccc2c(c1)c(CC(=O)O)c(C)n2C(=O)c1ccc(Cl)cc1 [Indomethacin, reference compound] |  |  |  |  |  |  |  |  |  |  |  | 52.8 |
